Tests used:
[1] = biological target: T1, CB1-Receptor (Homo sapiens, UniProt P21554); assay: In-vitro determination of affinity to CB1 receptor (radioligand binding); conditions: transfected human CB1 receptors of Receptor Biology, Inc.; radioligand [^3H]-CP55940; read-out: CB1-Receptor Radiologand:[^3H]-CP55940 IC50
T1 construct: purchased Receptor Biology, Inc
Method: The in-vitro determination of the affinity of the inventive quaternary ammonium salts of substituted pyrazoline compounds to CB1/CB2-Rezeptors is carried out as described in the publication of Ruth A. Ross, Heather C. Brockie et al., "Agonist-inverse agonist characterization at CB1 and CB2 cannabinoid receptors of L-759633, L759656 and AM630", British Journal of Pharmacology, 126, 665-672, (1999), whereby the transfected human CB1 and CB2 receptors of Receptor Biology, Inc. are used. The radioligand used for both receptors is [^3H]-CP55940. The respective parts of the description are hereby incorporated by reference and forms part of the present disclosure.

[2] = system: Male NMRI mice; assay: Mouse tetrad model, antagonistic activity against Win 55212-2; format: in vivo; conditions: against Win 55212-2 (1.25 mg/kg intravenous), substance injected 5 minutes before the agonist, tetrad component not specified
Description: Substances with affinity for cannabinoid receptors are known to produce a wide range of pharmacological effects. It is also known that intravenous administration of a substance with affinity for cannabinoid receptors in mice produces analgesia , hypothermia, sedation and catalepsy. Individually, none of these effects can be considered as proof that a tested substance has affinity for cannabinoid-receptors, since all of these effects are common for various classes of centrally active agents. However, substances, which show all of these effects, i.e. substances that are active in this so-called tetrad model are considered to have affinity for the cannabinoid receptors. It has further been shown that cannabinoid receptor antagonists are higly effective in blocking the effects of a cannabinoid agonist in the mouse tetrad model.
The tetrad model is described, for example, in the publication of A. C. Howlett et al, International Union of Pharmacology XXVII. […]
Before testing in the behavioral procedures given below, mice are acclimatized to the experimental setting. Pre-Treatment control values are determined for analgesia hot plate latency (in seconds), rectal temperature, sedation and catalepsy.
In order to determine the agonistic activty of the substance to be tested, the mice are injected intravenously with the substance to be tested or the vehicle alone. 15 minutes after injection, latency in hot plate analgesia is measured. Rectal temperature, sedation and catalepsy are measured 20 minutes after injection.
In order to determine the antagonistic activity the identical procedure is used as for the determination of the agonistic effects, but with the difference that the substance to be evaluated for its antagonistic activity is injectected 5 minutes before the intravenous injection of 1.25 mg/kg Win-55,212 a known cannabinoid-receptor agonist.
The hot plate analgesia is determined according to the method described in Woolfe D. et al. "The evaluation of analgesic action of pethidine hydrochloride (Demerol)", J. Pharmacol. Exp. Ther. 80, 300-307,1944. […]

T1 sequence (P21554 whole entry): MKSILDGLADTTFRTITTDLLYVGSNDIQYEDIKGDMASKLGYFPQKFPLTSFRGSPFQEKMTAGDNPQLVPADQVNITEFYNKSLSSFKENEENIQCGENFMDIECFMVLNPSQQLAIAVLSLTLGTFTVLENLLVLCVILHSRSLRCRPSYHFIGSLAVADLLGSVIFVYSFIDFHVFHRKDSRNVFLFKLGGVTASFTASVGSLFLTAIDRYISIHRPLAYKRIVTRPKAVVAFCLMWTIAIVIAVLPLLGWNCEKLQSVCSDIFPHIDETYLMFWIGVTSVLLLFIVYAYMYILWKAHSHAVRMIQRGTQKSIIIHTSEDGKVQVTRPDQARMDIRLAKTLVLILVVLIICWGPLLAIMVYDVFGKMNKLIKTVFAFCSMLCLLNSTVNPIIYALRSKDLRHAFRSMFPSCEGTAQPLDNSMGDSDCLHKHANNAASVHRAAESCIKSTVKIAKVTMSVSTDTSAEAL

Structure (SMILES) | IC50 [1] | Antagonistic Effect in (%) [2]
O=C(NN1CCCCCC1)C1=NN(c2ccc(Cl)cc2Cl)[C@@H](c2ccc(Cl)cc2)C1 [Example 2, (R)-N-(azepan-1-yl)-5-(4-chlorophenyl)-1-(2,4-dichlorophenyl)-4,5-dihydro-1H-pyrazole-3-carboxamide] | 7.9 nM | 137.2%
O=C(NN1CCCCCC1)C1=NN(c2ccc(Cl)cc2Cl)C(c2ccc(Br)cc2)C1 (centres unmarked) [Example 4, N-(azepan-1-yl)-5-(4-bromophenyl)-1-(2,4-dichlorophenyl)-4,5-dihydro-1H-pyrazole-3-carboxamide] | – | 100±6%
O=C(NN1CCCCCC1)C1=NN(c2ccc(Cl)cc2Cl)C(c2ccc(Cl)cc2)C1 (centres unmarked) [Example 1, N-(azepan-1-yl)-5-(4-chlorophenyl)-1-(2,4-dichlorophenyl)-4,5-dihydro-1H-pyrazole-3-carboxamide] | 25 nM | 116±2%
